Assay results as given in US10968178B2, “IP6K inhibitors” (TAKEDA PHARMACEUTICAL COMPANY LIMITED, priority 2017, dated 2021).

Legend:
Type in all cases: biochemical
human IP6K1 = target: T1, human IP6K1 (Homo sapiens, UniProt Q92551); assay: IP6K enzyme inhibitory assay (ADP-Glo Kinase Assay), human IP6K1; details: compound concentration 0.1 μM; read-out: ADP-Glo method inhibitory rate (%) human IP6K1
T1 construct: human IP6K1 (1-441) gene; GST; made in house; host or cells: Sf-9 insect cells
Procedure, shortened: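 Inhibition of human IP6K1 was determined with Promega's ADP-Glo Kinase Assay in 384 well plates. Test compound diluted in assay buffer (20 mM HEPES (pH 7.5), 6 mM MgCl2, 0.01% Tween-20, 1 mM DTT) was added at 2 μL, then 2 μL of enzyme started the reaction for 60 min at room temperature. Next came 3 μL ADP-Glo solution for 30 min and 6 μL Kinase-Detection solution for 60 min. Luminescence was read on an Envision plate reader.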

human IP6K2 = target: T2, human IP6K2 (Homo sapiens, UniProt Q9UHH9); assay: IP6K enzyme inhibitory assay (ADP-Glo Kinase Assay), human IP6K2; details: compound concentration 0.1 μM; read-out: ADP-Glo method inhibitory rate (%) human IP6K2
T2 construct: human IP6K2 (1-426) gene; GST; made in house; host or cells: Sf-9 insect cells
T2 sequence (Q9UHH9 1-426): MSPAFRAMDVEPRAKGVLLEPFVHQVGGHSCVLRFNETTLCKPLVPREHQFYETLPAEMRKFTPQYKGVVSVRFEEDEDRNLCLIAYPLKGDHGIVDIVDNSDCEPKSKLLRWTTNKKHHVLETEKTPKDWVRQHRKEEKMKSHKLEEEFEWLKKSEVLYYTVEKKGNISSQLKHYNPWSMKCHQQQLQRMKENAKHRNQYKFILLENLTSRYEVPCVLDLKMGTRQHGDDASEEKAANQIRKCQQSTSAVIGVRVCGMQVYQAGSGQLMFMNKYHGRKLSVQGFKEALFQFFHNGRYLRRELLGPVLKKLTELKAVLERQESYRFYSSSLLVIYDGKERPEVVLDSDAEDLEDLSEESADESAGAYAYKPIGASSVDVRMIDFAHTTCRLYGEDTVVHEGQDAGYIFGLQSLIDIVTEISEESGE
Procedure, shortened: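 The inhibitory activity against human IP6K2 was measured with Promega's ADP-Glo Kinase Assay in 384 well plates. Test compound, diluted in assay buffer (20 mM HEPES (pH 7.5), 6 mM MgCl2, 0.01% Tween-20, 1 mM DTT), was added at 2 μL. Adding 2 μL of diluted enzyme started the reaction, which ran for 60 min at room temperature. Next, 3 μL ADP-Glo solution (30 min) and 6 μL Kinase-Detection solution (60 min) were added, and luminescence was read on an Envision plate reader.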

human IP6K3 = target: T3, human IP6K3 (Homo sapiens, UniProt Q96PC2); assay: IP6K enzyme inhibitory assay (ADP-Glo Kinase Assay), human IP6K3; details: compound concentration 0.1 μM; read-out: ADP-Glo method inhibitory rate (%) human IP6K3
T3 construct: human IP6K3 (1-410) gene; made in house; host or cells: BL21 (DE3) Escherichia coli
T3 sequence (Q96PC2 1-410): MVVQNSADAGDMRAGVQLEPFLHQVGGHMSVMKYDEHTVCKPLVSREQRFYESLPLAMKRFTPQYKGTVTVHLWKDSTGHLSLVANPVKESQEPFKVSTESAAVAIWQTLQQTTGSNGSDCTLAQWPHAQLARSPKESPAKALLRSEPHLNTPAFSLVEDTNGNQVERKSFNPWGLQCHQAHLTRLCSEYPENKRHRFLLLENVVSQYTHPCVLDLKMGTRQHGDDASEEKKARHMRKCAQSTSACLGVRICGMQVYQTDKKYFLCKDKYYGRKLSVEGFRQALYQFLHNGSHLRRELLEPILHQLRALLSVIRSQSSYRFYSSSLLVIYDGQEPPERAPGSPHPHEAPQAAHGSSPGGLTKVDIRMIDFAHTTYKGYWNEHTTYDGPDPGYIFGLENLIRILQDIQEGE
Procedure, shortened: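 Recombinant human IP6K (IP6K3 residues 1-410, E. coli, Ni-NTA purified) incubated with compound in 20 mM HEPES pH 7.5, 6 mM MgCl2, 0.01% Tween-20, 1 mM DTT for 60 min at room temperature. ADP formed read as luminescence by ADP-Glo.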

T1 sequence (Q92551 whole entry): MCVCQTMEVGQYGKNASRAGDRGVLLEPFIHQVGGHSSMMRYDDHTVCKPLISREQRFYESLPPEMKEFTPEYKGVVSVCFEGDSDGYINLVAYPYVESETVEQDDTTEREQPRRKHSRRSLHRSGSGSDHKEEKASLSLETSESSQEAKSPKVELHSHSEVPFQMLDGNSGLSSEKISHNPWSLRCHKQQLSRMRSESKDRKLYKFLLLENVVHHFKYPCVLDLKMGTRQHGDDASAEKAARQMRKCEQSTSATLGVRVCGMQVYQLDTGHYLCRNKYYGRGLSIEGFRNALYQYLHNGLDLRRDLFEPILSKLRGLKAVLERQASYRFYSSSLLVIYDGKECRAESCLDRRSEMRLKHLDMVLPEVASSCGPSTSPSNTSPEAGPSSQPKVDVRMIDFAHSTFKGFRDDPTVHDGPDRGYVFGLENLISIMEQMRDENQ

Row | inhibition at 0.1 µM (human IP6K1) | inhibition at 0.1 µM (human IP6K2) | inhibition at 0.1 µM (human IP6K3) | Compound
1 | 97% | 92% | 99% | O=C(O)c1ccc2c(c1)[C@]1(CC[C@@H](Oc3cc(F)ccc3F)CC1)C(=O)N2 [Example 56, (1r,4r)-4-(2,5-difluorophenoxy)-2′-oxo-1′,2′-dihydrospiro[cyclohexane-1,3′-indole]-5′-carboxylic acid]
2 | 100% | 100% | 99% | O=C(O)c1ccc2c(c1)[C@]1(CC[C@@H](Oc3ccc(Cl)cc3Cl)CC1)C(=O)N2 [Example 1, (1r,4r)-4-(2,4-dichlorophenoxy)-2′-oxo-1′,2′-dihydrospiro[cyclohexane-1,3′-indole]-5′-carboxylic acid]
